According to patent publication US7807877B2, “Genetic sequences having methyltransferase activity and uses therefor” (International Flower Developments Pty. Ltd., priority 2002, dated 2010):
Several values for one entry are separate records, joined by “and”; a condition that tells them apart may be missing. Identical values can stand only once.

Experiments:
[1] = tested on: rose petals; assay: Incubation of excised rose petal segments with precursors or end products; type: cell-based, Rosa hybrida; conditions: around 16 hours; for Color at cut edge after incubation in DHM: around 23° C.; for Color at cut edge upon production of delphinidin: incubation in dihydromyricetin 1-2 mg/mL
Protocol: To determine whether rose petals contained the enzymes necessary for conversion of dihydromyricetin to delphinidin, precursor-feeding experiments with dihydromyricetin were initiated.
Petal segments of a selection of commercial cultivars of roses (Toplesse, Lambada, Medeo, Pamela, Sonia, Oceana, Mystique) were placed in solutions of 1-2 mg/mL dihydromyrectin or water only and incubated for around 16 hours in a growth room at a temperature of around 23° C. Pink/purple colors were observed near the cut edges of the petals (Table 6).
Petal segments of roses were placed in solutions of 1-2 mg/mL malvidin 3,5-diglucoside, 1-2 mg/mL dihydromyrectin or water only and incubated for around 16 hours in a growth room at a temperature of around 23° C. The production of colors in the purple range were observed near the cut edges of the petals upon incubation with dihydromyrectin or malvidin 3,5-diglucoside (Table 7).

[2] = Reconstruction experiments: anthocyanins added to petal juice of Medeo roses; type: physicochemical, Rosa hybrida
Protocol: The rose cultivar Medeo generally produces cream-colored to pale apricot flowers (RHSCC 158C to 159A). […] The estimated vacuolar pH of Medeo petals is around 4.6. The petal juice of Medeo roses was extracted by grinding one petal with 50 μL of water using a mortar and pestle. The petal juice was collected and mixed with 10-20 μL of 1-2 mg/g delphinidin 3-glucoside, delphinidin 3,5-diglucoside and malvidin 3,5-diglucoside. The colors observed were described according to the Royal Horticultural Society Color Charts (RHSCC) (The Royal Horticultural Society, London) (Table 8).

[3] = tested on: Torenia FMT (TFMT); assay: HPLC assay of methyltransferase activity, E. coli extract containing pCGP3090; type: biochemical, Torenia hybrida; conditions: for product of flavonoid methyltransferase activity with the substrate: Torenia FMT in pCGP3090, to a lesser degree petunidin; for % of anthocyanidin detected cya / % of anthocyanidin detected del / % of anthocyanidin detected mal / % of anthocyanidin detected peo / % of anthocyanidin detected pet: pCGP3090 (TFMT), percentage of total anthocyanidins
Protocol: (§1) The assay reactions were incubated at 30° C. for 30 minutes. Fifty microlitres of a chloroform mix (CHCl3:methanol/1% HCl, 2:1) was added and the mixture was then vortexed to stop the reactions. The phases were separated by centrifugation at 13,000 rpm for 5 minutes and 50 μL of the upper phase was transferred into a clean tube and the contents subsequently hydrolysed by the addition of 12.5 μL of 10M HCl. The tube was then placed in a boiling waterbath for 30 minutes and the contents subsequently desiccated under vacuum. The residue was resuspended in 2-3 μL of methanol/1% HCl and spotted onto a TLC plate alongside standard samples of petunidin, malvidin and delphinidin. The anthocyanidins were separated in a Forestal system (HOAc:water:HCl; 30:10:3) (Markham, Techniques of flavonoid identification, Academic Press, London, 1982) and the TLC was exposed to an autoradiographic film (Kodak) for 16 hours at −70° C.
(§2) Anthocyanidins in the reaction mixture were analysed by HPLC via gradient elution using gradient conditions of 50% B to 60% B over 10 minutes, then 60% B for 10 minutes and finally 60% B to 100% B over 5 minutes where solvent A consisted of TFA:H2O (5:995) and solvent B consisted of acetonitrile:TFA:H2O (500:5:495). An Asahi Pac ODP-50 cartridge column (250 mm×4.6 mm ID) was used for the reversed phase chromatographic separations. […].
(§3) The enzyme activities of the peptides encoded by Petunia and Torenia FMT cDNA clones in pCGP3086 and pCGP3090, respectively were further assessed using the substrates delphinidin 3-glucoside and delphinidin 3-rutinoside and delphinidin 3,5-diglucoside under assay conditions as previously described (Table 15, Example 9) except that the ^14C-labelled SAM was replaced with non radioactive SAM at 2 mg/mL and the substrates (delphinidin 3-glucoside and delphinidin 3-rutinoside and delphinidin 3,5-diglucoside) at 2 mg/mL.

[4] = tested on: Petunia FMT (E20); assay: HPLC assay of methyltransferase activity, E. coli extract containing pCGP3086; type: biochemical, Petunia hybrida; conditions: for product of flavonoid methyltransferase activity with the substrate: Petunia FMT (E20) in pCGP3086, to a lesser degree malvidin; for % of anthocyanidin detected cya / % of anthocyanidin detected del / % of anthocyanidin detected mal / % of anthocyanidin detected peo / % of anthocyanidin detected pet: pCGP3086 (PFMT), percentage of total anthocyanidins
Protocol: as §1, §2, §3

[5] = tested on: Petunia FMT (E20); assay: Methyltransferase assay (14C-SAM, TLC) of crude homogenate of E. coli containing pCGP3086; type: biochemical, Petunia hybrida; design: key to Petunidin (product on TLC) / Malvidin (product on TLC): yes = detection of product on TLC; no = no reaction observed as determined by absence of product
Protocol: 10 mLs of LB containing ampicillin at 100 μg/mL and kanamycin at 25 μg/mL. (LB/Amp100+Kan25) were inoculated with a single colony of pCGP3086 or pQE30 in M15 (pREP4) cells. […] IPTG was then added to a final concentration of 1 mM and the culture was further incubated at 30° C. with shaking for 8 hours. The cells were pelleted by centrifugation at 3500 rpm for 10 minutes at 4° C. The pellet was resuspended in 1 mL of 0.1 M NaPi, pH 7.5, 4 mM MgCl2. […] The mixture was then sonicated for two bursts of 10 seconds at output 2-3 and then incubated on ice for 30 minutes. The cell debris was pelleted by centrifugation at 14,000 rpm for 20 minutes at 4° C. The supernatant was passed through a NAP-10 column (Pharmacia) and 1.5 mL of the sample collected in 0.1 M NaPi, pH 7.5, 4 mM MgCl2. […] (1983), supra. Methyltransferase assays were set up according to Table 10 in a total reaction volume of 50 μL. […] The assay reactions were incubated at 30° C. for 30 minutes. Fifty microlitres of a chloroform mix (CHCl3:methanol/1% HCl, 2:1) was added and the mixture was then vortexed to stop the reactions. […] The tube was then placed in a boiling waterbath for 30 minutes and the contents subsequently desiccated under vacuum.

[6] = rose cultivar Lambada (orange petal), 1-2 mg/mL
[7] = rose cultivar Toplesse (pink petal), 1-2 mg/mL
[8] = pCGP3090, substrate 2 mg/mL, SAM 2 mg/mL, duplicate a/b
[9] = pCGP3086, substrate 2 mg/mL, SAM 2 mg/mL, duplicate a/b
[10] = pCGP3086 crude homogenate + 14C-SAM (Table 16, positive control)
[11] = pCGP3086 crude homogenate + 14C-SAM, 30° C., 30 minutes (Table 11)
[12] = duplicate a/b, listed as D3, 5G
[13] = pCGP3090, substrate 2 mg/mL, SAM 2 mg/mL, duplicate a/b, listed as D3, 5G

COc1cc(-c2[o+]c3cc(O)cc(O[C@@H]4O[C@H](CO)[C@@H](O)[C@H](O)[C@H]4O)c3cc2O[C@@H]2O[C@H](CO)[C@@H](O)[C@H](O)[C@H]2O)cc(OC)c1O [M35G, malvidin 3,5-diglucoside]
Color at cut edge after incubation with malvidin [1, 6]: violet/purple | Color at cut edge after incubation with malvidin [1, 7]: violet/purple | COLOR ([2]; pH 4.6): violet-blue | COLOR ([2]; pH 4.9): violet-blue | RHSCC# ([2]; pH 4.9): 90A

O=C1c2c(O)cc(O)cc2O[C@H](c2cc(O)c(O)c(O)c2)[C@H]1O [DHM, dihydromyricetin]
TLC analysis of the anthocyanidins in the pink/purple segments ([1]; petal segments of commercial rose cultivars, 1-2 mg/mL): production of delphinidin | Color at cut edge after incubation in DHM [1, 6]: pink/purple | Color at cut edge upon production of delphinidin ([1]; rose cultivar Lambada (orange petal)): pink/purple | Color at cut edge after incubation in DHM ([1]; rose cultivar Medeo (pale apricot petal), 1-2 mg/mL): pink/purple | Color at cut edge after incubation in DHM ([1]; rose cultivar Mystique (apricot petal), 1-2 mg/mL): pink/purple | Color at cut edge after incubation in DHM ([1]; rose cultivar Oceana (cream petal), 1-2 mg/mL): pink/purple | Color at cut edge after incubation in DHM ([1]; rose cultivar Pamela (white/pale pink petal), 1-2 mg/mL): pink/purple | Color at cut edge after incubation in DHM ([1]; rose cultivar Sonia (apricot/pink petal), 1-2 mg/mL): pink/purple | Color at cut edge after incubation in DHM [1, 7]: pink/purple | Color at cut edge upon production of delphinidin ([1]; rose cultivar Toplesse (pink petal)): pink/purple

C[C@@H]1O[C@@H](OC[C@H]2O[C@@H](Oc3cc4c(O)cc(O)cc4[o+]c3-c3cc(O)c(O)c(O)c3)[C@H](O)[C@@H](O)[C@@H]2O)[C@H](O)[C@H](O)[C@H]1O [D3R, delphinidin 3-rutinoside]
product of flavonoid methyltransferase activity with the substrate [3]: predominantly malvidin | Predominant FMT Activity ([3]; pCGP3090): 3′5′FMT | % of anthocyanidin detected cya ([3]; duplicate a/b): 0.0% | % of anthocyanidin detected del ([3]; duplicate a/b): 13.2% and 14.6% | % of anthocyanidin detected mal ([3]; duplicate a/b): 80.9% and 79.1% | % of anthocyanidin detected peo ([3]; duplicate a/b): 1.9% | % of anthocyanidin detected pet ([3]; duplicate a/b): 4.0% and 4.3% | Anthocyanidins (mg/g) Cya [3, 8]: 0 mg/g | Anthocyanidins (mg/g) Del [3, 8]: 2.5 mg/g and 2.8 mg/g | Anthocyanidins (mg/g) Mal [3, 8]: 15.6 mg/g and 15.1 mg/g | Anthocyanidins (mg/g) Peo [3, 8]: 0.4 mg/g | Anthocyanidins (mg/g) Pet [3, 8]: 0.8 mg/g | product of flavonoid methyltransferase activity with the substrate [4]: predominantly petunidin | Predominant FMT Activity ([4]; pCGP3086): 3′FMT | % of anthocyanidin detected cya ([4]; duplicate a/b): 2.5% | % of anthocyanidin detected del ([4]; duplicate a/b): 21.2% and 21.7% | % of anthocyanidin detected mal ([4]; duplicate a/b): 16.6% and 17.4% | % of anthocyanidin detected peo ([4]; duplicate a/b): 1.2% and 1.1% | % of anthocyanidin detected pet ([4]; duplicate a/b): 58.5% and 57.4% | Anthocyanidins (mg/g) Cya [4, 9]: 0.4 mg/g and 0.5 mg/g | Anthocyanidins (mg/g) Del [4, 9]: 3.7 mg/g and 4.5 mg/g | Anthocyanidins (mg/g) Mal [4, 9]: 2.9 mg/g and 3.6 mg/g | Anthocyanidins (mg/g) Peo [4, 9]: 0.2 mg/g | Anthocyanidins (mg/g) Pet [4, 9]: 10.2 mg/g and 11.9 mg/g | Petunidin and malvidin, the methylated derivatives of delphinidin, in assay reactions ([5]; crude homogenates from pCGP3086 cells, 14C-SAM): detected | Malvidin (product on TLC) [5, 10]: yes | Petunidin (product on TLC) [5, 10]: yes | Malvidin (product on TLC) [5, 11]: yes | Petunidin (product on TLC) [5, 11]: yes

OC[C@H]1O[C@@H](Oc2cc3c(O[C@@H]4O[C@H](CO)[C@@H](O)[C@H](O)[C@H]4O)cc(O)cc3[o+]c2-c2cc(O)c(O)c(O)c2)[C@H](O)[C@@H](O)[C@@H]1O [D35G, delphinidin 3,5-diglucoside]
product of flavonoid methyltransferase activity with the substrate [3]: predominantly malvidin | Predominant FMT Activity ([3]; pCGP3090): 3′5′FMT | % of anthocyanidin detected cya ([3]; duplicate a/b): 0.0% | % of anthocyanidin detected peo ([3]; duplicate a/b): 0.0% | % of anthocyanidin detected del [3, 12]: 22.9% and 28.9% | % of anthocyanidin detected mal [3, 12]: 70.0% and 66.9% | % of anthocyanidin detected pet [3, 12]: 7.1% and 4.3% | Anthocyanidins (mg/g) Cya [3, 8]: 0 mg/g | Anthocyanidins (mg/g) Peo [3, 8]: 0 mg/g | Anthocyanidins (mg/g) Mal [3, 13]: 7.3 mg/g and 12.4 mg/g | Anthocyanidins (mg/g) Pet [3, 13]: 0.7 mg/g and 0.8 mg/g | product of flavonoid methyltransferase activity with the substrate [4]: predominantly petunidin | Predominant FMT Activity ([4]; pCGP3086): 3′FMT | % of anthocyanidin detected peo ([4]; duplicate a/b): 0.0% | % of anthocyanidin detected cya [4, 12]: 0.0% and 2.2% | % of anthocyanidin detected del [4, 12]: 45.6% and 55.9% | % of anthocyanidin detected mal [4, 12]: 11.0% and 6.0% | % of anthocyanidin detected pet [4, 12]: 43.4% and 35.9% | Anthocyanidins (mg/g) Peo [4, 9]: 0 mg/g | Anthocyanidins (mg/g) Mal ([4]; pCGP3086, substrate 2 mg/mL, SAM 2 mg/mL, duplicate a/b, listed as D3, 5G): 0.7 mg/g and 1.1 mg/g | COLOR ([2]; pH 4.6): violet | RHSCC# ([2]; pH 4.6): 88A | COLOR ([2]; pH 4.9): violet | RHSCC# ([2]; pH 4.9): 88A
